{"source": "patent US9180107B2", "about": "(NANOPHARMACEUTICALS LLC, priority 2009, dated 2015)", "key": {"[1]": {"test_system": "monkey kidney epithelial CV-1 cells", "test": "Proliferation of non-malignant cells", "assay_type": "cell-based, African green monkey", "settings": "10^−6M daily for 7 days", "experimental": "FIG. 9 is a series of graphs showing the comparison of nano-tetrac and tetrac on cell proliferation in non-malignant cells. CV-1 cells (FIG. 9A) and 293 T cells (FIG. 9B) were treated daily with 10^−6 M tetrac or nano-tetrac. Cells were harvested at the time points indicated. Total cell numbers taken after each treatment were used as an indicator for tetrac- or nano-tetrac-induced anti-proliferation.\nIn order to confirm that tetrac and nano-tetrac only suppress cell proliferation in cancer cells, tetrac and nano-tetrac were also examined for potential anti-proliferative effects on immortalized non-malignant cells, using monkey kidney epithelial CV-1 cells and human embryonic kidney 293T cells. The cells were treated daily with either 10^−6M tetrac or 10^−6M nano-tetrac for 7 days, then were harvested, counted and examined microscopically."}, "[2]": {"test_system": "MDA-MB cells", "test": "Apoptosis by flow cytometry (FACS) in perfusion bellows culture", "assay_type": "cell-based, human", "settings": "for induced apoptosis compared to untreated control: day 2", "experimental": "MDA-MB cells grown in perfusion bellows cell culture were treated with different concentrations of tetrac (10^−7 M to 10^−5 M) daily. Cells were harvested on the day indicated. Two million cells of each sample were prepared for flow cytometry. Flow cytometry was conducted as described in Example 1, infra.\nCells were harvested from flakes by trypsinization, washed with PBS and were resuspended in 200 μL PBS (1×10^5-1×10^6 cells). To quantify cellular DNA content, cells were permeabilized by fixation with 70% ethanol for 30 min at 4° C. Samples can be stored in 70% ethanol at −20° C. for several weeks prior to propidium iodide (PI) staining and flow cytometric analysis. If cellular DNA quantification was performed on the same day of cell harvest, the cells were washed after permeabilization in PBS and resuspended in 500 μL PBS. Then 2.5 μL RNase (DNase-free) was added to the cell suspension and incubation was carried out at 37° C. for 30 min. The cell suspension was chilled on ice to 4° C. and 50 μL propidium iodide (PI) was added to the cell suspension. Samples were then kept in the dark at room temperature for 30 min, after which they were subjected to flow cytometry. Samples were analyzed on FACSCalibur™ (Becton Dickinson), using CellQuest software to determine DNA content. Fluorescence-activated cell sorting (FACS) analysis was performed using Annexin V-FITC and PI. The relative percentages of cells in G1, S, or G2/M phase were calculated from FL-2 histograms using ModFit LT software.\nCells were harvested for FACS analysis 1-5 d after treatment with 10^−7 to 10^−5 M tetrac. […] (See FIG. 7). By day 2, tetrac, 10^−7M and 10^−6M, induced apoptosis by 2.5-fold as compared to untreated control. Similar results were obtained after 4 d of treatment of tetrac. […] (See FIG. 7)."}, "[3]": {"test_system": "Human adenoid cystic carcinoma TGS112T cells", "test": "[3H]-thymidine incorporation", "assay_type": "cell-based", "experimental": "TGS112T cells were seeded in 24-well trays and exposed to 10% hormone-depleted FBS-supplemented medium for 2 d, then treated with 0.25% hormone-depleted FBS-supplemented medium prior to starting the experiments. Aliquots of cells were treated with T4, tetrac or nano-tetrac as indicated, as well as 1 μCi [^3H]-thymidine (final concentration, 13 nM) for 24 h. Cells were then washed twice with cold PBS. TCA (5%, 1 mL) was added and the plate was held at 4° C. for 30 min. The precipitate was washed twice with cold ethanol; 2% SDS (1 mL) was added to each well and the TCA-precipitable radioactivity was quantitated in a liquid scintillation counter.\nHuman adenoid cystic carcinoma TGS112T cells were cultured in medium that contained 0.25% hormone-stripped serum for 2 d and then treated with 10^−7 M tetrac or nano-tetrac for 30 min prior institution of 10^−7 M T4 treatment for 24 h. Nuclear proteins were separated by SDS-PAGE followed by western blot analysis with proliferating-cell nuclear antigen (PCNA) antibody. Thyroid hormone-induced PCNA accumulation was inhibited by tetrac. (See FIG. 6A). […] (See FIG. 6A). Inhibition of thyroid hormone-induced proliferation was confirmed by inhibition by tetrac and nano-tetrac of thyroid hormone-induced accumulation and [^3H]-thymidine incorporation. (See FIG. 6B). […] (See FIG. 6B). […] The effect of nano-tetrac and tetrac on cell proliferation was examined by counting TGS112T cells which were treated daily with 10^−6 M tetrac or 10^−6 M nano-tetrac. […] (See FIG. 6C)."}, "[4]": {"test_system": "TGS112T cells", "test": "Cell proliferation by cell counting", "assay_type": "cell-based, human", "settings": "treated daily with 10^−6 M", "experimental": "FIG. 6 is a series of graphs showing the effects of tetrac and nano-tetrac in human adenoid cystic carcinoma (TGS112T). In FIG. 6A, TGS112T cancer cells were treated with 10^−7M T4 in the presence or absence of 10^−7M tetrac for 24 h. T4-induced PCNA expression was inhibited by tetrac. In FIG. 6B, TGS112T cancer cells were treated with 10^−7 M T4 in the presence or absence of 10^−7 M tetrac or nano-tetrac, daily and 1 μCi [^3H]-thymidine (final concentration, 13 nM) was added for 24 h. […] In FIG. 6C, TGS112T cells were treated daily with 10^−6 M tetrac or nano-tetrac. Cells were harvested at the time points as indicated. Total cell numbers taken after each treatment were used as indicator for tetrac- or nano-tetrac-induced anti-proliferation.\nHuman adenoid cystic carcinoma TGS112T cells were cultured in medium that contained 0.25% hormone-stripped serum for 2 d and then treated with 10^−7 M tetrac or nano-tetrac for 30 min prior institution of 10^−7 M T4 treatment for 24 h. Nuclear proteins were separated by SDS-PAGE followed by western blot analysis with proliferating-cell nuclear antigen (PCNA) antibody. Thyroid hormone-induced PCNA accumulation was inhibited by tetrac. (See FIG. 6A). […] (See FIG. 6A). Inhibition of thyroid hormone-induced proliferation was confirmed by inhibition by tetrac and nano-tetrac of thyroid hormone-induced accumulation and [^3H]-thymidine incorporation. […]"}}, "data": [{"smiles": "O=C(O)Cc1cc(I)c(Oc2cc(I)c(O)c(I)c2)c(I)c1", "note": "[tetrac, Tetraiodothyroacetic acid]", "values": [{"measurement": "change in cell numbers and morphology vs untreated control", "setting": "[1]", "value": "no significant change"}, {"measurement": "increase of apoptotic cells compared to untreated control cells", "setting": "[2]; 10^−5 M, 1 d", "value": 10, "unit": "fold"}, {"measurement": "induced apoptosis compared to untreated control", "setting": "[2]; 10^−6M", "value": 2.5, "unit": "fold"}, {"measurement": "induced apoptosis compared to untreated control", "setting": "[2]; 10^−7M", "value": 2.5, "unit": "fold"}, {"measurement": "reduction of T4-induced thymidine incorporation", "setting": "[3]; 10^−7 M with 10^−7 M T4, 24 h", "value": 5, "unit": "fold"}, {"measurement": "effect of agent alone on thymidine incorporation", "setting": "[3]; 10^−7 M, 24 h", "value": "stimulated thymidine incorporation"}, {"measurement": "cell count after 7 d", "setting": "[4]", "value": "3.65×10^8 cells"}]}]}
